# Earlier results as cited in US20100227801A1, “PHARMACEUTICAL COMPOSITIONS” (Scynexis, Inc., priority 2009, published 2010).
# Columns and labels:
# HCV = details: phase Ib clinical trial
# HCV subgenomic replicon = details: subgenomic replicon system
# HCV full length replicon = details: full length replicon system
Structure (SMILES),activity against HCV infected patients (HCV),inhibition of HCV-specific RNA replication (HCV subgenomic replicon),inhibition of HCV-specific RNA replication (HCV full length replicon)
CC(C)OC(=O)[C@H](C)NP(=O)(OC[C@H]1O[C@@H](n2ccc(=O)[nH]c2=O)[C@](C)(F)[C@@H]1O)Oc1ccccc1 (stereo partly drawn) [PSI-7851],demonstrated activity,–,–
"C/C=C/C[C@@H](C)[C@@H](O)[C@H]1C(=O)N[C@@H](CC)C(=O)N(C)[C@H](SCCN(C)C)C(=O)N(C)[C@@H](CC(C)(C)O)C(=O)N[C@@H](C(C)C)C(=O)N(C)[C@@H](CC(C)C)C(=O)N[C@@H](C)C(=O)N[C@H](C)C(=O)N(C)[C@@H](CC(C)C)C(=O)N(C)[C@@H](CC(C)C)C(=O)N(C)[C@@H](C(C)C)C(=O)N1C [SCY-635, 3-[(R)-2-(N,N-dimethylamino)ethylthio-Sar]-4-(gammahydroxymethylleucine)cyclosporine]",–,potent and selective inhibition,potent and selective inhibition
